Experimental data as given in article PMC4673972 (Bioinformatics, 2015).

What was measured:
[1] = biological target: Bcl-2 (B-cell lymphoma 2) (Homo sapiens, UniProt P10415); assay: intrinsic tryptophan fluorescence quenching; type: binding
[2] = biological target: B-cell lymphoma 2 (Bcl-2) (UniProt P10415); assay: fluorescence polarisation
Chain of B-cell lymphoma 2 (Bcl-2) (P10415 whole entry): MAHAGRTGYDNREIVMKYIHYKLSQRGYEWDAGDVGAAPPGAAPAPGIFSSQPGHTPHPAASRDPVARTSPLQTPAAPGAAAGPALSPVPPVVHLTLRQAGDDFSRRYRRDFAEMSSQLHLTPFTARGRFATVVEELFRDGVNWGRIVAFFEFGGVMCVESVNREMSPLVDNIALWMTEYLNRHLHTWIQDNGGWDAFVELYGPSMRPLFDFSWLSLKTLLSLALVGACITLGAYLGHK

Chain of Bcl-2 (B-cell lymphoma 2) (P10415 whole entry): as above

A Kd [1] of 380 ± 80 µM was found for `CC(C)(COP(=O)(O)OP(=O)(O)OC[C@H]1O[C@@H](n2cnc3c(N)ncnc32)[C@H](O)[C@@H]1OP(=O)(O)O)[C@@H](O)C(=O)NCCC(=O)NCCS` [CoA] in this work.

A Kd [2] of 0.128 µM was found for fluorescent-labeled Bax-BH3 peptide in this work.
